pIC50: −log10 of the molar value.
Molecular target: T1, Oligopeptidase B (OPB) (Leishmania major, UniProt Q4QHU7)
T1 sequence (Q4QHU7 1-731): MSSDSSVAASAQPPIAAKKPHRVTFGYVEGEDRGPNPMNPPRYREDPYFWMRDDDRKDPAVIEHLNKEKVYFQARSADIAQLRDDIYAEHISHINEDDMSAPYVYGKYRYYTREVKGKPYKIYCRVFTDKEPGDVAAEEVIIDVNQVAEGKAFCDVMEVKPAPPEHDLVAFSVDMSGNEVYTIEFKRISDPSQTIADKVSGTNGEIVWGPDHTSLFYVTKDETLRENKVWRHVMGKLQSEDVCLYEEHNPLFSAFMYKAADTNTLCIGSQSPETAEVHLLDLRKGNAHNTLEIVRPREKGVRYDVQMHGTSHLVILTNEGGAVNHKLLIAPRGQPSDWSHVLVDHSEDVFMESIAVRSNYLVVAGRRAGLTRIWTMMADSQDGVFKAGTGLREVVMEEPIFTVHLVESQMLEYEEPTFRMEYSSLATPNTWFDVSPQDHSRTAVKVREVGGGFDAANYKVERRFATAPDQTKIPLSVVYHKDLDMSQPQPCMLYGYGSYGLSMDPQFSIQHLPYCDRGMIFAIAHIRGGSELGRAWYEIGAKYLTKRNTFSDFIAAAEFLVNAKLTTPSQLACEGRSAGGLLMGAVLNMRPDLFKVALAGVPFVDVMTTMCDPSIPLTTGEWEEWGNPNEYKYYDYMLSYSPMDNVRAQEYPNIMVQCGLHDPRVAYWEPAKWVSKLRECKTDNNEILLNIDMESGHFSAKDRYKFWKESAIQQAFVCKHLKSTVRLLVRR
Test: inhibition of Bz-R-AMC cleavage in live promastigotes
Format: cell-based

## NCCc1ccc(S(=O)(=O)F)cc1 [AEBSF]
  pIC50: 4.84
